Values of other authors in patent US11575141B2 (Robert Bosch GmbH, priority 2020, dated 2023).
Like-named read-outs stand apart in the source and are kept apart here.

pKa values (pKa source in footnotes) (fourth pKa value listed)	pKa values (pKa source in footnotes) (third pKa value listed)	Structure (SMILES)	pKa values (pKa source in footnotes) (first pKa value listed)	pKa values (pKa source in footnotes) (second pKa value listed)
–	–	O=[PH](O)O [Example 14, Phosphonic acid]	1.1-2.3	5.3-7.2
–	–	NP(=O)(O)O [Example 10, Phosphoramidate]	~3.4	~8.3
–	–	O=P(O)(O)OP(=O)(O)OP(=O)(O)O [Example 5, Triphosphoric acid]	0.89 ^3	–
10.0	7.3	O=P(O)(O)P(=O)(O)O [Example 2, Hypophosphoric acid]	2.2	2.8
